Molecular target: T1, human RXFP1 (Homo sapiens, UniProt Q9HBX9)
T1 construct: expressed in transfected cells
T1 sequence (Q9HBX9 1-757): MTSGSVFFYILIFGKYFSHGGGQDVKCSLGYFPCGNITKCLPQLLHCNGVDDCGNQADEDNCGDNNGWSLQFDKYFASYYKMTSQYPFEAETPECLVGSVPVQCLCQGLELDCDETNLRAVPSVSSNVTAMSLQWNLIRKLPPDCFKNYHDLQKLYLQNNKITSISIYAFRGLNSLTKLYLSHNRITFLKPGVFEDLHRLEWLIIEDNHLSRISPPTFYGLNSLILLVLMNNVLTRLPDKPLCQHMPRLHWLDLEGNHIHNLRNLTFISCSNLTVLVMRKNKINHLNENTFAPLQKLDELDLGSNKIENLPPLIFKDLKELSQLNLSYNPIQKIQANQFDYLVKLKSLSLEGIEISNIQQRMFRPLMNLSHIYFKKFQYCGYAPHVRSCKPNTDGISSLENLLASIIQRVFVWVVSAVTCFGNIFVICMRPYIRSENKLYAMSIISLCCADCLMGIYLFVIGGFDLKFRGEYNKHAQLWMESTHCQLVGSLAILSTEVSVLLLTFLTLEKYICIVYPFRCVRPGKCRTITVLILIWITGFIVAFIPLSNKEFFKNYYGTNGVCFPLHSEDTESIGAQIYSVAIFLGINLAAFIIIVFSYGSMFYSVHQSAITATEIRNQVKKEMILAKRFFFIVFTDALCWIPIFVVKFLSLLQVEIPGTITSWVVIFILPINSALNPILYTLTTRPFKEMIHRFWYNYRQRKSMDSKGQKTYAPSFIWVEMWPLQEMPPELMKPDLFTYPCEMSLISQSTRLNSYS
Assay: hRXFP1 HEK293 cAMP assay (HTRF)
Format: cell-based
Conditions: HEK293 cells stably expressing human RXFP1, 30 min at room temperature
How it was run: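 Intracellular cAMP was read by HTRF, with potency fitted to a 4-parameter logistic curve. Compound exposure (0.010 nM–50 μM final, 2% DMSO) lasted 30 min at room temperature. Cells were hRXFP1-HEK293 at 1500 per well in IBMX-containing (0.5 mM) HEPES-buffered HBSS.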

Structure (SMILES)	EC50
COc1ccc(CCCOc2nc3ccccc3n2C)cc1C(=O)N[C@@H]1C2CCC(/C2=C/C(F)(F)F)[C@@H]1C(=O)Nc1ccc(F)c(C(F)(F)F)c1 (stereo partly drawn) [Example 105, (2S,3R,7Z)-N-[4-fluoro-3-(trifluoromethyl)phe-nyl]-3-(2-methoxy-5-{3-[(1-methyl-1H-1,3-benzodiazol-2-yl)oxy]propyl}benza-mido)-7-(2,2,2-trifluoroethylidene)bi-cyclo[2.2.1]heptane-2-carboxamide]	1640 nM
COc1ccc(C2CC2C(=O)O)cc1C(=O)N[C@@H]1C2CCC(/C2=C/C(F)(F)F)[C@@H]1C(=O)Nc1ccc(F)c(C(F)(F)F)c1 (single isomer, unassigned) [Example 63]	4420 nM
COc1ccc(C(=O)N2CCS(=O)(=O)CC2)cc1C(=O)N[C@H]1[C@@H](C(=O)Nc2ccc(F)c(C(F)(F)F)c2)[C@H]2CC[C@@H]1/C2=C\C1CC1 [Example 242, (1R,2S,3R,4R,7Z)-7-(cyclopropyl-methylidene)-3-[5-(1,1-dioxo-1λ.^6-thiomorpholine-4-carbonyl)-2-methoxybenzamido]-N-[4-fluoro-3-(trifluoromethyl)phenyl]bicyclo [2.2.1] heptane-2-carboxamide]	261 nM
COc1ccc(CCCCO)cc1C(=O)N[C@@H]1C2CCC(/C2=C/C2CCC2)[C@@H]1C(=O)Nc1ccc(F)c(C(F)(F)F)c1 (stereo partly drawn) [Example 96, (2S,3R,7Z)-7-(cyclobutylmethyli-dene)-N-[4-fluoro-3-(trifluoromethyl)phe-nyl]-3-[5-(4-hydroxybutyl)-2-methoxybenzamido] bicyclo[2.2.1]heptane-2-carboxamide]	46 nM
COc1ccc(C2CCCC(NC(=O)C3CCOCC3)C2)cc1C(=O)N[C@@H]1C2CCC(/C2=C/C(F)(F)F)[C@@H]1C(=O)Nc1ccc(F)c(C(F)(F)F)c1 (single isomer, unassigned) [Example 49]	833 nM
COc1ccc(CCCCC(F)(F)F)cc1C(=O)NC1C2CCC(/C2=C/C2CCC2)[C@@H]1C(=O)Nc1ccc(F)c(C(F)(F)F)c1 (stereo partly shown) [Example 193, (7Z)-7-(cyclobutylmethyli-dene)-N-[4-fluoro-3-(trifluoromethyl)phe-nyl]-3-[2-methoxy-5-(5,5,5-trifluoropentyl)benz-amido]bicyclo[2.2.1] heptane-2-carboxamide]	55 nM
COc1ccc(CCC(N)=O)cc1C(=O)NC1C2CCC(/C2=C/C(F)(F)F)[C@@H]1C(=O)Nc1ccc(F)c(C(F)(F)F)c1 (stereo partly drawn) [Example 140, (2S,3R,7Z)-3-[5-(2-carbamoylethyl)-2-methoxybenzamido]-N-[4-fluoro-3-(trifluoromethyl)phe-nyl]-7-(2,2,2-trifluoroethylidene)bi-cyclo[2.2.1]heptane-2-carboxamide]	736 nM
COc1ccc(C(C)(C)CCO)cc1C(=O)N[C@H]1[C@@H](C(=O)Nc2ccc(F)c(C(F)(F)F)c2)[C@H]2CC[C@@H]1/C2=C\C(F)(F)F [Example 272, (1R,2S,3R,4R,7Z)-N-[4-fluoro-3-(trifluoromethyl)phenyl]-3-[5-(4-hydroxy-2-methylbutan-2-yl)-2-methoxybenzamido]-7-(2,2,2-trifluoroethylidene) bicyclo[2.2.1]heptane-2-carboxamide]	422 nM
COc1ccc(/C=C/C(=O)NCCO)cc1C(=O)N[C@@H]1C2CCC(/C2=C/C(F)(F)F)[C@@H]1C(=O)Nc1ccc(F)c(C(F)(F)F)c1 (stereo partly drawn) [Example 133, (2S,3R,7Z)-N-[4-fluoro-3-(trifluoromethyl)phe-nyl]-3-{5-[(1E)-2-[(2-hydroxyethyl)carba-moyl]eth-1-en-1-yl]-2-methoxybenzamido}-7-(2,2,2-trifluoroethylidene)bi-cyclo[2.2.1]heptane-2-carboxamide]	384 nM
COc1ccc(CCCCOC(=O)NC2CCC2)cc1C(=O)N[C@@H]1C2CCC(/C2=C/C(F)(F)F)[C@@H]1C(=O)Nc1ccc(F)c(C(F)(F)F)c1 (stereo partly drawn) [Example 102, 4-(3-{[(2R,3S,7Z)-3-{[4-fluoro-3-(trifluoromethyl)phe-nyl]carbamoyl}-7-(2,2,2-trifluoroethylidene)bi-cyclo[2.2.1]heptan-2-yl]carbamoyl}-4-methoxyphenyl)butyl N-cyclobutylcarbamate]	439 nM
COc1ccc(S(=O)(=O)N2CC3CCC(C2)O3)cc1C(=O)N[C@H]1[C@@H](C(=O)Nc2ccc(F)c(C(F)(F)F)c2)[C@H]2CC[C@@H]1/C2=C\C1CC1 [Example 221, (1R,2S,3R,4R,7Z)-7-(cyclopropylmethyl-idene)-N-[4-fluoro-3-(trifluoromethyl)phenyl]-3-(2-methoxy-5-{8-oxa-3-azabicyclo[3.2.1]octane-3-sulfonyl}benzamido) bicyclo[2.2.1]heptane-2-carboxamide]	44.9 nM
COc1ccc(C2CCCC(NCC(=O)O)C2)cc1C(=O)N[C@@H]1C2CCC(/C2=C/C(F)(F)F)[C@@H]1C(=O)Nc1ccc(F)c(C(F)(F)F)c1 (stereo partly shown) [Example 354]	4990 nM
COc1ccc(CCCC(F)(F)F)cc1C(=O)NC1C2CCC(/C2=C/C2CCC2)[C@@H]1C(=O)Nc1ccc(F)c(C(F)(F)F)c1 (stereo partly shown) [Example 195, (7Z)-7-(cyclobutylmethylidene)-N-[4-fluoro-3-(trifluoromethyl)phe-nyl]-3-[2-methoxy-5-(4,4,4-trifluorobutyl)benza-mido]bicyclo[2.2.1] heptane-2-carboxamide]	59 nM
COc1ccc(CCC(=O)NCCO)cc1C(=O)N[C@@H]1C2CCC(/C2=C/C(F)(F)F)[C@@H]1C(=O)Nc1ccc(F)c(C(F)(F)F)c1 (stereo partly drawn) [Example 137, (2S,3R,7Z)-N-[4-fluoro-3-(trifluoromethyl)phe-nyl]-3-(5-{2-[(2-hydroxyethyl)carba-moyl]ethyl}-2-methoxybenzamido)-7-(2,2,2-trifluoroethylidene)bi-cyclo[2.2.1]heptane-2-carboxamide]	400 nM
COc1ccc(C2CCCC(NC(=O)C3CCOCC3)C2)cc1C(=O)N[C@@H]1C2CCC(/C2=C/C(F)(F)F)[C@@H]1C(=O)Nc1ccc(F)c(C(F)(F)F)c1 (single isomer, unassigned) [Example 50]	2350 nM

Compounds with a lower EC50, results first:

EC50	Structure (SMILES)
3 nM	COc1c(F)cc(C(=O)NCC2(S(C)(=O)=O)CC2)cc1C(=O)N[C@H]1[C@@H](C(=O)N[C@H](C)C2(C)CC2)[C@H]2CC[C@@H]1/C2=C\C1CC1 [Example 369, N3-[(1R,2R,3S,4R,7Z)-7-(cyclopropyl-methylidene)-3-{[(1R)-1-(1-methylcyclopropyl)ethyl]carbamoyl}bicyclo[2.2.1]heptan-2-yl]-5-fluoro-N1-[(1-methanesulfonyl-cyclopropyl)methyl]-4-methoxybenzene-1,3-dicarboxamide]
12.6 nM	COc1ccc(C(=O)N2CCC(S(C)(=O)=O)C2)cc1C(=O)N[C@H]1[C@@H](C(=O)Nc2ccc(F)c(C(F)(F)F)c2)[C@H]2CC[C@@H]1/C2=C\C1CC1 (stereo partly shown) [Example 256]
14 nM	COc1ccc(CCC(C)(C)O)cc1C(=O)N[C@@H]1C2CCC(/C2=C/C2CC2)[C@@H]1C(=O)Nc1ccc(F)c(C(F)(F)F)c1 (stereo partly drawn) [Example 90, (2S,3R,7Z)-7-(cyclopropylmethyli-dene)-N-[4-fluoro-3-(trifluoromethyl)phe-nyl]-3-[5-(3-hydroxy-3-methylbutyl)-2-methoxybenzamido] bicyclo[2.2.1]heptane-2-carboxamide]
9.7 nM	COc1c(F)cc(C2CC3CC(CO)CC3C2)cc1C(=O)N[C@H]1[C@@H](C(=O)Nc2ccc(F)c(C(F)(F)F)c2)[C@H]2CC[C@@H]1/C2=C\C1CCCC1 (stereo partly drawn) [Example 370, (1R,2S,3R,4R,7Z)-7-(cyclopentyl-methylidene)-N-[4-fluoro-3-(trifluoromethyl)phenyl]-3-{3-fluoro-5-[5-(hydroxymethyl)-octahydropentalen-2-yl]-2-methoxybenzamido} bicyclo[2.2.1]heptane-2-carboxamide]
32 nM	COc1ccc(C[C@H]2C[C@H](O)C2)cc1C(=O)N[C@H]1[C@@H](C(=O)Nc2ccc(F)c(C(F)(F)F)c2)[C@H]2CC[C@@H]1/C2=C\C(F)(F)F [Example 278, (1R,2S,3R,4R,7Z)-N-[4-fluoro-3-(trifluoromethyl)phenyl]-3-(2-methoxy-5-{[(1r,3s)-3-hydroxycyclobutyl]methyl}benzamido)-7-(2,2,2-trifluoroethylidene) bicyclo[2.2.1]heptane-2-carboxamide]
13 nM	COc1cc(COC2(CO)CC2)ccc1C(=O)N[C@H]1[C@@H](C(=O)Nc2ccc(F)c(C(F)(F)F)c2)[C@H]2CC[C@@H]1/C2=C\C1CC1 [Example 14, (1R,2S,3R,4R,Z)-7-(cyclopropylmethylene)-N-(4-fluoro-3-(trifluoromethyl)phenyl)-3-(4-((1-(hydroxymethyl)cyclopropoxy)methyl)-2-methoxybenzamido) bicyclo[2.2.1]heptane-2-carboxamide]
34 nM	COc1ccc(C2CC3CC(CO)CC32)cc1C(=O)N[C@H]1[C@@H](C(=O)Nc2ccc(F)c(C(F)(F)F)c2)[C@H]2CC[C@@H]1/C2=C\C1CC1 (single isomer, unassigned) [Example 348]
